Results as given in US20230406831A1, “COMPOUNDS AND METHODS OF INHIBITING BACTERIAL CHAPERONIN SYSTEMS” (THE TRUSTEES OF INDIANA UNIVERSITY, priority 2020, published 2023).

tested on: S. aureus; test: S. aureus bacterial proliferation assay; assay type: cell-based; conditions: Staphylococcus aureus; Table 1; cation adjusted BHI media, OD600 at 6-8 h; read-out: S. aureus Proliferation EC50
Protocol: Evaluation of compounds for inhibition of bacterial cell proliferation.
Growth Media: S. aureus bacteria were grown in Brain Heart Infusion (BHI) broth/agar (Becton, Dickinson and Company). All liquid cultures were grown in BHI media supplemented with 25 mg/L Ca^2+ and 12.5 mg/L Mg^2+ to mimic free physiological concentrations of these cations. A 10 mg/mL Ca^2+ stock solution was prepared by dissolving 3.68 g of CaCl2·2H^2O in 100 mL of deionized water, and a 10 mg/mL Mg^2+ stock solution was prepared by dissolving 8.36 g of […] in 100 mL deionized water. Both stock solutions were filter-sterilized using 0.2 μm pore size cellulose-acetate filters. 2.5 mL of the sterile 10 mg/mL Ca^2+ stock and 1.25 mL of the sterile 10 mg/mL Mg^2+ stock solutions were added per 1 L of autoclaved BHI medium to obtain 25 mg/L Ca^2+ and 12.5 mg/L Mg^2+ ions, respectively.
General Assay Protocol: Stock bacterial cultures were streaked onto BHI agar plates and grown overnight at 37° C. Fresh aliquots of broth were inoculated with single bacterial colonies and the cultures were grown overnight at 37° C. with shaking (240 rpm) in cation adjusted BHI media. The following morning, the overnight cultures were sub-cultured (1:5 dilution) into fresh aliquots of cation adjusted BHI media and grown at 37° C. for 1-2 hours with shaking. After 2 h, cultures were diluted into fresh media to achieve final OD600 readings of 0.017. Aliquots of these diluted cultures (30 μL) were added to clear, flat-bottom, 384-well polystyrene plates that were stamped with 0.5 μL of test compounds in 20 μL media. Compounds were evaluated in dose-response format where the inhibitor concentration range during the proliferation assay was 100 μM to 46 nM (3-fold dilution series). Plates were sealed with “Breathe Easy” oxygen permeable membranes (Diversified Biotech) and left to incubate at 37° C. without shaking (stagnant assay). OD600 nm readings were taken generally at 6-8 h, when bacteria had reached log-phase growth. A second set of baseline control plates were prepared analogously, but without any bacteria added, to correct for possible compound absorbance and/or precipitation. Plates were then read at 600 nm using a Molecular Devices SpectraMax Plus384 microplate reader. EC50 values for the test compounds were obtained by plotting the OD600 results in GraphPad Prism and analyzing by non-linear regression using the log(inhibitor) vs. response (variable slope) equation. For results, see Tables 1, 2, and 3.

SMILES | EC50 [nM]
O=C(Nc1ncc([N+](=O)[O-])s1)c1ccccc1O [Tizoxanide, reference compound] | 9700
CC(=O)Oc1ccccc1C(=O)Nc1ncc([N+](=O)[O-])s1 [Nitazoxanide, reference compound] | 12000
Cc1cc(C(C#N)c2ccc(Cl)cc2)c(Cl)cc1NC(=O)c1cc(I)cc(I)c1O (stereo not shown) [Closantel, reference compound] | 480

same assay, conditions: Staphylococcus aureus; Table 2; cation adjusted BHI media, OD600 at 6-8 h; read-out: S. aureus Proliferation EC50

SMILES | EC50 [nM]
Cc1cc(C(C#N)c2ccc(Cl)cc2)c(Cl)cc1NC(=O)c1cccc(Br)c1O (stereo not shown) [Compound 48, 3-bromo-N-(5-chloro-4-((4-chlorophenyl)(cyano)methyl)-2-methylphenyl)-2-hydroxybenzamide] | 580
Cc1cc(C(C#N)c2ccc(Cl)cc2)c(Cl)cc1NC(=O)c1ccc(Cl)cc1O (stereo not shown) [Compound 56, 4-chloro-N-(5-chloro-4-((4-chlorophenyl)(cyano)methyl)-2-methylphenyl)-2-hydroxybenzamide] | 13
Cc1cc(C(C#N)c2ccc(Cl)cc2)c(Cl)cc1NC(=O)c1cc(Br)ccc1O (stereo not shown) [Compound 50, 5-bromo-N-(5-chloro-4-((4-chlorophenyl)(cyano)methyl)-2-methylphenyl)-2-hydroxybenzamide] | 110
Cc1cc(C(C#N)c2ccc(Cl)cc2)c(Cl)cc1NC(=O)c1cc(Cl)cc(Cl)c1O (stereo not shown) [Compound 52, 3,5-dichloro-N-(5-chloro-4-((4-chlorophenyl)(cyano)methyl)-2-methylphenyl)-2-hydroxybenzamide] | 270

same assay, conditions: Staphylococcus aureus; Table 3; cation adjusted BHI media, OD600 at 6-8 h; read-out: S. aureus Proliferation EC50

SMILES | EC50 [nM]
N#CCc1ccc(NC(=O)c2cc(Cl)ccc2O)cc1 [Compound 111, 5-chloro-N-(4-(cyanomethyl)phenyl)-2-hydroxybenzamide] | > 100000
COc1ccc(Cl)cc1C(=O)Nc1ccccc1 [Compound 116, 5-chloro-2-methoxy-N-phenylbenzamide] | > 100000
COc1ccc(Cl)cc1C(=O)Nc1ccc(OCc2ccccc2)cc1 [Compound 102, N-(4-(benzyloxy)phenyl)-5-chloro-2-methoxybenzamide] | > 100000
COc1ccc(Cl)cc1C(=O)Nc1ccc(Sc2nc3ccccc3s2)cc1 [Compound 96, N-(4-(benzo[d]thiazol-2-ylthio)phenyl)-5-chloro-2-methoxybenzamide] | > 100000
COc1ccc(Cl)cc1C(=O)Nc1cc(Cl)c(C(C#N)c2ccc(Cl)cc2)cc1C (stereo not shown) [Compound 57, 5-chloro-N-(5-chloro-4-((4-chlorophenyl)(cyano)methyl)-2-methylphenyl)-2-methoxybenzamide] | > 100000
O=C(Nc1ccc(OCc2ccccc2)cc1)c1cc(Cl)ccc1O [Compound 103, N-(4-(benzyloxy)phenyl)-5-chloro-2-hydroxybenzamide] | > 100000
O=C(Nc1ccc(Sc2nc3ccccc3s2)c(Cl)c1)c1cc(Cl)ccc1O [Compound 95, N-(4-(benzo[d]thiazol-2-ylthio)-3-chlorophenyl)-5-chloro-2-hydroxybenzamide] | 140
O=C(Nc1ccc(Sc2nc3ccccc3s2)cc1)c1cc(Cl)ccc1O [Compound 97, N-(4-(benzo[d]thiazol-2-ylthio)phenyl)-5-chloro-2-hydroxybenzamide] | 100
O=C(Nc1ccc(Oc2ccc(Cl)cc2)cc1)c1cc(Cl)ccc1O [Compound 89, 5-chloro-N-(4-(4-chlorophenoxy)phenyl)-2-hydroxybenzamide] | 360
COc1ccc(Cl)cc1C(=O)Nc1ccc(C(=O)O)cc1 [Compound 108, 4-(5-chloro-2-methoxybenzamido)benzoic acid] | > 100000
COc1ccc(Cl)cc1C(=O)Nc1ccc(Oc2ccc(Cl)cc2)cc1 [Compound 88, 5-chloro-N-(4-(4-chlorophenoxy)phenyl)-2-methoxybenzamide] | > 100000
COc1ccc(Cl)cc1C(=O)Nc1ccc(Sc2nc3ccccc3s2)c(Cl)c1 [Compound 94, N-(4-(benzo[d]thiazol-2-ylthio)-3-chlorophenyl)-5-chloro-2-methoxybenzamide] | > 100000
CC(=O)Nc1ccc(NC(=O)c2cc(Cl)ccc2O)cc1 [Compound 105, N-(4-acetamidophenyl)-5-chloro-2-hydroxybenzamide] | > 100000
COc1ccc(Cl)cc1C(=O)Nc1ccc(NC(C)=O)cc1 [Compound 104, N-(4-acetamidophenyl)-5-chloro-2-methoxybenzamide] | > 100000

same assay, conditions: Table 2; cation adjusted BHI media, OD600 at 6-8 h

SMILES | S. aureus Proliferation EC50 [µM]
Cc1cc(C(C#N)c2ccc(Cl)cc2)c(Cl)cc1NC(=O)c1cccc(F)c1 (stereo not shown) [Compound 80, N-(5-chloro-4-((4-chlorophenyl)(cyano)methyl)-2-methylphenyl)-3-fluorobenzamide] | > 100
COc1c(Br)cc(Br)cc1C(=O)Nc1cc(Cl)c(C(C#N)c2ccc(Cl)cc2)cc1C (stereo not shown) [Compound 45, 3,5-dibromo-N-(5-chloro-4-((4-chlorophenyl)(cyano)methyl)-2-methylphenyl)-2-methoxybenzamide] | > 100
Cc1cc(C(C#N)c2ccc(Cl)cc2)c(Cl)cc1NC(=O)c1ccc(F)cc1 (stereo not shown) [Compound 81, N-(5-chloro-4-((4-chlorophenyl)(cyano)methyl)-2-methylphenyl)-4-fluorobenzamide] | > 100
Cc1cc(C(C#N)c2ccc(Cl)cc2)c(Cl)cc1NC(=O)c1ccc(O)cc1 (stereo not shown) [Compound 66, N-(5-chloro-4-((4-chlorophenyl)(cyano)methyl)-2-methylphenyl)-4-hydroxybenzamide] | 4.9
Cc1cc(C(C#N)c2ccc(Cl)cc2)c(Cl)cc1NC(=O)c1ccc(Br)cc1 (stereo not shown) [Compound 75, 4-bromo-N-(5-chloro-4-((4-chlorophenyl)(cyano)methyl)-2-methylphenyl)benzamide] | > 100
COc1ccc(Cl)cc1C(=O)Nc1cc(Cl)c(C(C#N)c2ccc(Cl)cc2)cc1C (stereo not shown) [Compound 57, 5-chloro-N-(5-chloro-4-((4-chlorophenyl)(cyano)methyl)-2-methylphenyl)-2-methoxybenzamide] | > 100
CC(=O)Nc1cc(Cl)c(C(C#N)c2ccc(Cl)cc2)cc1C (stereo not shown) [Compound 83, N-(5-chloro-4-((4-chlorophenyl)(cyano)methyl)-2-methylphenyl)acetamide] | > 100
Cc1cc(C(C#N)c2ccc(Cl)cc2)c(Cl)cc1NC(=O)c1ccc(N)cc1 (stereo not shown) [Compound 72, 4-amino-N-(5-chloro-4-((4-chlorophenyl)(cyano)methyl)-2-methylphenyl)benzamide] | > 100
Cc1cc(C(C#N)c2ccc(Cl)cc2)c(Cl)cc1NC(=O)c1ccccc1Br (stereo not shown) [Compound 73, 2-bromo-N-(5-chloro-4-((4-chlorophenyl)(cyano)methyl)-2-methylphenyl)benzamide] | > 100
Cc1cc(C(C#N)c2ccc(Cl)cc2)c(Cl)cc1NC(=O)c1ccc(Cl)cc1 (stereo not shown) [Compound 78, 4-chloro-N-(5-chloro-4-((4-chlorophenyl)(cyano)methyl)-2-methylphenyl)benzamide] | > 100
Cc1cc(C(C#N)c2ccc(Cl)cc2)c(Cl)cc1NC(=O)c1ccccc1Cl (stereo not shown) [Compound 76, 2-chloro-N-(5-chloro-4-((4-chlorophenyl)(cyano)methyl)-2-methylphenyl)benzamide] | > 100
Cc1cc(C(C#N)c2ccc(Cl)cc2)c(Cl)cc1NC(=O)c1cccc(Cl)c1 (stereo not shown) [Compound 77, 3-chloro-N-(5-chloro-4-((4-chlorophenyl)(cyano)methyl)-2-methylphenyl)benzamide] | > 100
Cc1cc(C(C#N)c2ccc(Cl)cc2)c(Cl)cc1NC(=O)c1ccccc1 (stereo not shown) [Compound 82, N-(5-chloro-4-((4-chlorophenyl)(cyano)methyl)-2-methylphenyl)benzamide] | > 100
